Values of other authors in article PMC4895178 (Scientific Reports, 2016).

Settings: in plasma
Excerpt: The pioneering work of Vale et al.[8] established that residues 7 to 10 form the ph ...

Question: With `C[C@H](N)C(=O)NCC(=O)N[C@H]1CSSC[C@@H](C(=O)O)NC(=O)[C@H](CO)NC(=O)[C@H]([C@@H](C)O)NC(=O)[C@H](Cc2ccccc2)NC(=O)[C@H]([C@@H](C)O)NC(=O)[C@H](CCCCN)NC(=O)[C@H](Cc2c[nH]c3ccccc23)NC(=O)[C@H](Cc2ccccc2)NC(=O)[C@H](Cc2ccccc2)NC(=O)[C@H](CC(N)=O)NC(=O)[C@H](CCCCN)NC1=O` [Somatostatin (SRIF), Somatostatin] as the molecule, how does the half-life read?
Answer: 2 to 3 min
